A short description of series [1]: In vivo nasal, oral and intravenous delivery of oxybutynin in rats; plasma levels by HPLC. Particulars: rat; for bioavailability: read-out: Bioavailability relative to intravenous administration (100%). How it is done: The nasal absorption of oxybutynin was studied using an in vivo technique described previously (1). Male Sprague-Dawley rats (body weight 250±25 gm) were used in these studies. Animals were fasted overnight prior to experimentation. Surgical procedures were performed under equithesin anesthesia (3 ml/kg, i.p.). An incision was made in the neck, and the trachea cannulated with polyethylene tubing (PE-260). A closed end tube was inserted through the esophagus to the posterior part of the nasal cavity to prevent drug from entering the esophagus. The nasopalatine passage was then closed with an adhesive agent to prevent drainage of the drug from the nasal cavity to the mouth.
Blood samples were collected from a cannula inserted into the femoral artery. For intravenous drug administration, the jugular vein was cannulated.
Solutions of oxybutynin hydrochloride (5 mg/kg/100 μl) were prepared in normal saline and administered through the right nostril using a microsyringe. For oral administration, rats received an aqueous solution of oxybutynin hydrochloride (5 mg/kg) administered by gavage tube. For intravenous (i.v.) administration, the same dose of oxybutynin was injected into the jugular vein (1 ml/kg body weight). Blood samples after oxybutynin administration were collected before and at […] after drug administration, centrifuged, and serum removed and stored (−70° C.) until analysis.
Differences in the plasma oxybutynin or N-desethyloxybutynin concentrations between i.v., oral, and nasal delivery routes were compared using the Student's t test.
Analysis of oxybutynin and its metabolites N-desethyloxybutynin were performed using HPLC as described by Buyse et al. (2). Extraction of standards for calibration curve and plasma samples were performed as described previously by Hughes et al. (3).
Oxybutynin and its metabolite (N-desethyloxybutynin) were analyzed using a reverse-phase column (25 cm×[…] I.D.) and eluted with mobile phase consisting of 50% acetonitrile in […] potassium phosphate buffer, pH 6.3. The mixture was filtered and degassed prior to use. The flow rate was 0.7 ml/min, and the effluent was monitored with a dual UV detector system at 210 nm.
All determinations were performed by calculating the area ratios of each compound to the internal standard. Unknown amounts were determined from calibration curves run with each day's unknown analysis.

Assay in series [2]: as above
Particulars: male, Sprague-Dawley, rat, mean ± SEM, read-out: AUC0-2 h.

The conditions of series [3]: oral administration (Douchamps et al.); cited from earlier work.
The conditions of series [4]: cited from earlier work.

The values below come from patent publication US6545046B2, “Method for enhanced delivery of oxybutynin and compositions thereof” (Theramax Inc., priority 2000, dated 2003).

Read-outs that look alike come from different tables or passages of the source.

`CCN(CC)CC#CCOC(=O)C(O)(c1ccccc1)C1CCCCC1` (stereo not drawn) [oxybutynin, Benzeneacetic acid, a-cyclohexyl-a-hydroxy-4-(diethylamino)-2-butynyl ester]: the bioavailability in series [1] (male, Sprague-Dawley, plasma, other: intranasal, intranasal 5 mg/kg) is 90%; in series [1] (male, Sprague-Dawley, plasma, oral 5 mg/kg) it was roughly 9%. Besides, the tmax in series [1] (male, Sprague-Dawley, plasma, inhaled or intranasal, 5 mg/kg, intranasal oxybutynin 5 mg/kg, read-out: tmax (converted)) is 10 min; in series [1] (male, Sprague-Dawley, plasma, po, 5 mg/kg, oral oxybutynin 5 mg/kg (solution in water), read-out: tmax (converted)), 30 to 40 min; in series [1] (oral oxybutynin 5 mg/kg (solution in water)) it was 40 min. The “Increase in bioavailability after intranasal compared to oral administration” value in series [1] (5 mg/kg) was roughly 10 fold. In addition, the AUC(0-t) in series [2] (inhaled or intranasal, intranasal oxybutynin 5 mg/kg) worked out at 1770 ± 190 ng·h/mL; in series [2] (oral oxybutynin 5 mg/kg) it was 180 ± 53 ng·h/mL. Also, the Systemic bioavailability in series [3] is reported as less than 6%. In series [4] (intravesical oxybutynin therapy, several studies), the Patient withdrawal entry is “up to 65%”. For the same compound, the “Patients with adverse reactions requiring discontinuance of therapy” value in series [4] (oral 5 mg 3 times daily, clinical studies) is “about 20%”.
For `CCNCC#CCOC(=O)C(O)(c1ccccc1)C1CCCCC1` (stereo not drawn) [N-desethyloxybutynin], the results for the tmax in series [1] (intranasal oxybutynin 5 mg/kg) and in series [1] (oral oxybutynin 5 mg/kg) were 96 min and 66 min, respectively. Besides, the “Ratio N-desethyloxybutynin/Oxybutynin” value in series [1] (intranasal oxybutynin 5 mg/kg, mean ± SEM, 4 rats) is roughly 0.55. The “Plasma concentration of N-desethyloxybutynin relative to parent compound oxybutynin” value in series [1] (oral oxybutynin 5 mg/kg) is on record as “approximately 12 fold”.
